Test results taken from patent US5935960A, “Pro-drugs of 5-(2-(4-(1,2-benzisothiazol-3-yl)-1-piperazinyl)ethyl)-6-chloro-1,3-dihy dro-2H-indol-2-one” (Pfizer Inc., priority 1997, dated 1999).
Counter-ions that a name gives are not always drawn. Like-named read-outs stand apart in the source and are kept apart here.

Columns and labels:
aqueous solubility = format: physicochemical; settings: dihydrochloride salt, at about 25° C.
[1] = titration with 0.2032 Molar sodium hydroxide (pKa); format: physicochemical; settings: dihydrochloride titrated with 0.2032 M NaOH
Experimental: The compound (5.0 g, 12.1 mmol) from Example 1 was suspended in 75 mL of THF at room temperature, and then 1.97 mL of concentrated hydrochloric acid was slowly added over 30 min affording a gummy solid. Water (5 mL) was added and the gummy solids were stirred for 6 hours to produce a finely divided solid which was granulated overnight. The mixture was filtered and the filter cake was washed with THF (10 mL). The product was dried in vacuo at 25° C. overnight under a nitrogen bleed to give 5.87 g of the title dihydrochloride compound as a tan solid (mp=232-240° C. with decomposition).

Dopamine D-3 receptor = target: T1, Dopamine D-3 receptor (Homo sapiens, UniProt P35462); assay: Dopamine D-3 radioligand binding (3H-spiroperidol, human D3-transfected CHO cells); settings: 3H-spiroperidol 0.1 nM, pH 7.4, read-out: Radioligand Binding Results, D3 (apparent Ki)
T1 construct: expressed in transfected cells; host or cells: CHO cells (from Dr. J. C. Schwartz, INSERM, Paris)
T1 sequence (P35462 whole entry): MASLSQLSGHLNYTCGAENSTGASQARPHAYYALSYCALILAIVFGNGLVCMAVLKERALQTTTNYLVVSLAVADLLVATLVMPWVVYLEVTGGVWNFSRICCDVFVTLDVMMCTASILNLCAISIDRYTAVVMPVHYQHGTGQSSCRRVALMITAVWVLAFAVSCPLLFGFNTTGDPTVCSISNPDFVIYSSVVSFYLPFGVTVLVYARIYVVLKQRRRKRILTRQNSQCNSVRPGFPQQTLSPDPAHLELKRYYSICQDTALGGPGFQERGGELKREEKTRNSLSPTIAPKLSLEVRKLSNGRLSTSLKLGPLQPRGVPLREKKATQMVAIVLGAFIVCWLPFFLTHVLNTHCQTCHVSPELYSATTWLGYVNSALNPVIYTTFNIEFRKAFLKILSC
Text: (§1) The compound of formula I is therefore useful in the treatment or prevention of psychotic disorders, such as schizophrenia. […] Specifically, the standard methods for determining neuroleptic activity are based on Dopamine D-2, Dopamine D-3, Dopamine D4, 5-hydroxytryptamine-1A (5-HT-1A), 5-hydroxytryptamine-2C (5-HT-2C), and 5-hydroxytryptamine-2A (5-HT-2A) receptor binding studies. Tissues or membranes used to perform these studies are derived from rat, pig, or from cell lines expressing human receptor subtypes. LTK-cells expressing the human D2Long receptor were obtained from Dr. Olivier Civelli, Oregon Health Sciences University, Portland, Oreg. Chinese hamster ovary cells (CHO) expressing the human D3 receptor were obtained from Dr. J. C. […]
(§2) The following protocol describes one possible method for determining activity for the compound of formula I. Specific assay conditions for each receptor is described in Table 1, below. […] Non-specific binding is determined by radioligand binding in the presence of a saturating excess of a known competitor for the receptor of interest (as listed in Table 1). […] Membrane-bound ligand is determined by liquid scintillation counting of the filters in Ready-Safe scintillation cocktail (for tritiated ligands), or by direct counting in a gamma counter (for [^125 .vertline.] ligands). […]

Dopamine D-4 receptor = target: T2, Dopamine D-4 receptor (Homo sapiens, UniProt P21917); assay: Dopamine D-4 radioligand binding (3H-spiroperidol, human D4-transfected COS-7 cells); settings: 3H-spiroperidol 0.1 nM, pH 7.4, read-out: Radioligand Binding Results, D4 (apparent Ki)
T2 construct: expressed in transfected cells; host or cells: COS-7 cells
T2 sequence (P21917 1-419): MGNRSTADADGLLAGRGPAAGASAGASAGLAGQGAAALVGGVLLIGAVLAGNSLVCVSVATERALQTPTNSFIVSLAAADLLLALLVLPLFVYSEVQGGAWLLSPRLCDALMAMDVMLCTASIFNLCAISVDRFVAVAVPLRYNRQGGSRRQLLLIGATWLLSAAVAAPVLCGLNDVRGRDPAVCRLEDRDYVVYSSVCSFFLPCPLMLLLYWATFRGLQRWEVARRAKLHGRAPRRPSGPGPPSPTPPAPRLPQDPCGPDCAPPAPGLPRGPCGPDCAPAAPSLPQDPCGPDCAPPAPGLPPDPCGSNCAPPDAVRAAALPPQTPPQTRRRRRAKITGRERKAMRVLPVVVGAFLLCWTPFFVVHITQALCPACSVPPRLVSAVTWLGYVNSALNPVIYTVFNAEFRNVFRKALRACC
Text: as §1, §2

5HT-2A receptor = target: T3, 5HT-2A receptor (Rattus norvegicus, UniProt P14842); assay: 5HT-2A radioligand binding (3H-ketanserin, rat frontal cortex); settings: 3H-ketanserin 0.4 nM, pH 7.7, read-out: Radioligand Binding Results, 5HT2 (IC50)
T3 construct: rat frontal; from tissue; host or cells: rat frontal cortex
T3 sequence (P14842 whole entry): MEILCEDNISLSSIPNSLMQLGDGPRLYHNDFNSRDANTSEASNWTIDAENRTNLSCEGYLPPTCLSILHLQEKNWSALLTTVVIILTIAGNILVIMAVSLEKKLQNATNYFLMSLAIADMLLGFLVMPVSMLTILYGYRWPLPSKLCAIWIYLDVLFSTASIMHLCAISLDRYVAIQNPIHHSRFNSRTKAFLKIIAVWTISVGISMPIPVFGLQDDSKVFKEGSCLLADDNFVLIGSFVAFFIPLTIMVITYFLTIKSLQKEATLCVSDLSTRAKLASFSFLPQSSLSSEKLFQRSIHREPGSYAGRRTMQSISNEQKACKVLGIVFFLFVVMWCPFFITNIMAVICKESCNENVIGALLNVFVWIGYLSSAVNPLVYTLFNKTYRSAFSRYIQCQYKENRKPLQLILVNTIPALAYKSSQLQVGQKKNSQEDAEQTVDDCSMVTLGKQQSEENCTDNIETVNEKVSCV
Text: as §1, §2

5HT-1A receptor = target: T4, 5HT-1A receptor (Rattus norvegicus, UniProt P19327); assay: 5HT-1A radioligand binding (3H-8OH-DPAT, rat cortex); settings: 3H-8OH-DPAT 1.5 nM, pH 7.7, read-out: Radioligand Binding Results, 5HT1A (IC50)
T4 construct: rat cortex; from tissue; host or cells: rat cortex
T4 sequence (P19327 1-422): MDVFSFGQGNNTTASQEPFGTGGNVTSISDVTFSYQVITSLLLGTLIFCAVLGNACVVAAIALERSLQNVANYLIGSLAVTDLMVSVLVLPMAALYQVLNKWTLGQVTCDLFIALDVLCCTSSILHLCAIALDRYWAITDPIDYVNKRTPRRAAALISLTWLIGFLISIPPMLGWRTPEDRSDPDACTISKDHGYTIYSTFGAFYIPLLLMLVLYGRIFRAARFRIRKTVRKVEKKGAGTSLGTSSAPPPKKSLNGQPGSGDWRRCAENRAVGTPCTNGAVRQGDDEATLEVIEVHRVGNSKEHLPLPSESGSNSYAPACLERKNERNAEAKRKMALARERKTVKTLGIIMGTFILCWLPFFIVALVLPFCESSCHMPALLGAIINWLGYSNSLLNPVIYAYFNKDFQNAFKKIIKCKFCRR
Text: as §1, §2

Row | SMILES | aqueous solubility relative to ziprasidone hydrochloride (times higher) (aqueous solubility) | solubility (aqueous solubility; water) | pKa ([1]; first equivalence point pH 4.33, read-out: pKa (first)) | pKa ([1]; second equivalence point pH 8.22, read-out: pKa (second)) | Ki (Dopamine D-3 receptor) | Ki (Dopamine D-4 receptor) | IC50 (5HT-2A receptor) | IC50 (5HT-1A receptor)
1 | N=C(c1ccccc1S)N1CCN(CCc2cc3c(cc2Cl)NC(=O)C3)CC1 [Example 2, 1-[2-(6-Chloro-2.3-dihydro-2-oxo-1H-indol-5-yl)ethyl]-4-[(imino(2-mercaptophenyl)methyl]piperazinedihydrochloride] | approximately 300 times | ~25 mg/mL | 3.1 | 5.5 | – | – | – | –
2 | N=C(c1ccccc1S)N1CCN(CCc2cc3c(cc2Cl)NC(=O)C3)CC1 [Example 1, 1-[2-(6-chloro-2,3-dihydro-2-oxo-1H-indol-5-yl)ethyl]-4-[imino(2-mercaptophenyl)methyl]piperazine] | – | – | – | – | 5.8 nM | 59.2 nM | 0.35 nM | 12 nM
